Assay results published in patent US20110009332A1, “Therapeutic Treatment Of Wounds” (SOUTHWEST RESEARCH INSTITUTE, priority 2009, published 2011).
Where a SMILES comes first, the peptide text is derived from it. The star is where a group is joined. Cbz = O=C(OCc1ccccc1)*; OtBu = CC(C)(C)O*

Tested on: TGF-β1
Assay: TGF-β1 gene expression (qPCR, normalized over 18S) in human dermal fibroblasts
Assay type: cell-based
Method: An examination of gene expression of TFG-β1 was conducted using a number of proteasome inhibitors including, proteasome inhibitor-1, curcumin, MG-132 and bortezomib. Human neonatal dermal fibroblasts (AllCells, Catalog No. HN006001) were maintained in Dulbecco's modified Eagle's medium (DMEM) supplemented with 10% fetal bovine serum. Early passage cells were plated at 2×10^4 cells/cm^2 and grown in humidified 5% CO2 at 37° C. for 24 hours. Spent media was replaced the following day with assay media including Proteasome inhibitor-1 was added in DMEM at 1 μM and 0.1 μM. Untreated cells were used as the control group. For the human osteogenesis PCR array, the experimental group was treated only at 1 μM. In addition, in separate trials, spent media was replace by assay media of curcumin added in DMEM at 10 μM and 100 μM, MG-132 in DMEM at 0.1 μM and 1 μM, and bortezomib in DMEM at 0.1 μm and 1 μM.
Phenol-chloroform extraction was performed to isolate the total RNA for real time polymerase chain reaction array. More specifically, the total RNA was prepared using TRI REAGENT (Ambion, product number 9738), wherein the total RNA was obtained from the human neonatal dermal fibroblasts. Note that isolation was performed as per the instructions provided with the TRI REAGENT. The RNA was used for subsequent quantitative polymerase chain reaction (qPRC) gene expression of TFG-β1 measured using hydrolysis probes (TAQMAN probes available from Applied Biosystems) as described further below.
Concentration and integrity of the obtained total RNA was assessed by absorbance in a spectrophotometer at 260 nm and 280 nm and by electrophoresis in 1% agarose with formaldehyde loading dye. For TAQMAN gene expression assays, cDNA was synthesized from 2 μg of total RNA using the High Capacity cDNA Reverse Transcription Kit (Applied Biosystems, product number 4368814), again following the protocol supplied with the kit. The resulting cDNA was diluted 1:10.
For TAQMAN gene expression, gene-specific fluorescent labeled TAQMAN primers for FAM-TFG-β1 (Applied Biosystems, product number Hs00998130.m1) and TAQMAN reference VIC-18S ribosomal RNA (Applied Biosystems, product number 4310893E) were used to target the gene of interest. A cocktail of universal master mix (Applied Biosystems, product number 4369016) was prepared individually for both set of primers which contained Taq Polymerase, dNTPs, and buffer. Template cDNA's were added separately to respective individual wells in triplicate samples. PCR was performed on StepOne Plus Real Time System instrument (Applied Biosystems). The amplification program consisted of 1 cycle of 95° C. with 10 minute hold (hot start) followed by 50 cycles of 95° C. with 15 second annealing hold and 1 minute 60° C. specified acquisition hold.
For human osteogenisis PCR array, total RNA was prepared using silica matrix purification using RNEASY MINI KIT (Qiagen, product number 74101) according to the manufacturer's recommendations. cDNA was synthesized from 1 μg of purified DNA-free RNA accordingly to RT^2First Strand Kit (SABiosciences, C-03). The resulting cDNA was diluted 1:30 and amplified. The procedure for the PCR array using real-time PCR is based on the RT^2 Profiler PCR array system instructions for Human Osteogenesis (SABiosciences, product number PAHS-026C). A cocktail reaction mix was setup as recommended by the PCR manufacturer (SABiosceiences, product number PA-012). PCR was performed using the same temperature parameters as used with the StepOne Plus Real Time System instrument. The Ct value of endogenous reference gene (i.e. 18s) was used to control for input RNA and then used to normalize target gene (i.e. TFG-β1) tested from the same cDNA sample ([…]), and then calibrated to an internal reference sample ([…]). Change in gene expression was determined by the expression 2̂-([…]). […]

[1] = 0.1 μM inhibitor, FIG. 30, non-treated 1.50 (MG132) / 1.43 (bortezomib)
[2] = 1 μM inhibitor, FIG. 30, non-treated 1.50 (MG132) / 1.43 (bortezomib)

Row | Compound | TFG-β1/18 mRNA levels [1] [a.u.] | TFG-β1/18 mRNA levels [2] [a.u.] | further results
1 | CC(C)C[C@@H](C=O)NC(=O)[C@H](CC(C)C)NC(=O)[C@H](CC(C)C)NC(=O)OCc1ccccc1 [MG132] (Cbz-Leu-Leu-Leu-aldehyde) | 2.12 | 1.49 | –
2 | CC[C@H](C)[C@H](NC(=O)OCc1ccccc1)C(=O)N[C@@H](CCC(=O)OC(C)(C)C)C(=O)N[C@@H](C)C(=O)N[C@H](C=O)CC(C)C [PS-1, Z-Ile-Glu(OBu^t)-Ala-Leu-H] (Cbz-IE(OtBu)AL-aldehyde) | – | – | TFG-β1/18 mRNA levels (0.1 μM PS-1, FIG. 28, nontreated 1.15, decrease relatively statistically insignificant): ~1.03 a.u.; TFG-β1/18 mRNA levels (1.0 μM PS-1, FIG. 28, nontreated 1.15, decrease relatively statistically insignificant): ~1.11 a.u.
3 | CC(C)C[C@H](NC(=O)[C@H](Cc1ccccc1)NC(=O)c1cnccn1)B(O)O [bortezomib] | 1.99 | 1.97 | –
4 | COc1cc(/C=C/C(=O)CC(=O)/C=C/c2ccc(O)c(OC)c2)ccc1O [curcumin] | – | – | TFG-β1/18 mRNA levels (10 μM curcumin, FIG. 29, non-treated 1.15): 0.644 a.u.; TFG-β1/18 mRNA levels (100 μM curcumin, FIG. 29, non-treated 1.15): 1.53 a.u.
